The source of these data is US20260258047A1, “COMPOSITIONS USEFUL FOR MODULATING SPLICING” (Skyhawk Therapeutics, Inc., priority 2023, published 2026).

The subject of this test is ATXN3 transcripts containing exon 4. Description: ATXN3 quantitative splicing assay (qPCR, E4E5 primers/probe). It counts as cell-based. The following applies: Human neuroblastoma SK-N-MC cells, 24 h treatment, qPCR of transcripts containing exon 4; read-out: ATXN3 Potency - Splicing E4E5 IC50. The procedure:
Human neuroblastoma SK-N-MC cells were plated in 384-well plates at 20,000 cells/well. Twenty-four hours after plating, cells were treated with compounds for 24 h at appropriate concentrations ranging from 30 μM to 0.6 nM (0.3% DMSO). Treated cells were lysed in 15 μL of lysis buffer, and cDNA was synthesized using the Fast Advanced Cells-to-Ct kit. Two μL of each cDNA was used in qPCR reactions to confirm the exon 4 skipped transcripts of ATXN3. A second set of primers/probe E4E5 was used to detect the transcripts containing exon 4. The third set of primers/probe E8E9 was used to detect total gene level of ATXN3. The qPCR reactions were prepared in 384-well plates in 10 μL volume, using TaqMan™ Fast Advanced Master Mix with primers and probes shown in the table below. Reactions were run in a Quant Studio 6 qPCR instrument with default settings.
The primers and probes are listed below in Table 3.

Turning to `Cc1c(C[C@@H](N)[C@H](C)F)cc2c(NCc3ccncc3F)nc(Cl)nn12` [Compound 7, 6-((2R,3S)-2-amino-3-fluorobutyl)-2-chloro-N-((3-fluoropyridin-4-yl)methyl)-7-methylpyrrolo[2,1-f][1,2,4]triazin-4-amine], the IC50 lay within 101 to 500 nM.

For `C[C@H](F)[C@H](N)Cc1cc2c(NCc3c(F)cncc3F)nc(Cl)nn2c1Br` [Compound 4, 6-((2R,3S)-2-amino-3-fluorobutyl)-7-bromo-2-chloro-N-((3,5-difluoropyridin-4-yl)methyl)pyrrolo[2,1-f][1,2,4]triazin-4-amine], the IC50 fell in the range of 101 to 500 nM.

With `Cc1c(C[C@@H](N)[C@H](C)F)cc2c(NCc3ccncc3)nc(Cl)nn12` [Compound 5, 6-((2R,3S)-2-amino-3-fluorobutyl)-2-chloro-7-methyl-N-(pyridin-4-ylmethyl)pyrrolo[2,1-f][1,2,4]triazin-4-amine], the IC50 is 101 to 500 nM.

In the case of `C[C@H](F)[C@H](N)Cc1cc2c(NCc3ccncn3)nc(Cl)nn2c1Br` [Compound 2, 6-((2R,3S)-2-amino-3-fluorobutyl)-7-bromo-2-chloro-N-(pyrimidin-4-ylmethyl)pyrrolo[2,1-f][1,2,4]triazin-4-amine], the IC50 fell in the range of 0.01 to 100 nM.

Take `C[C@H](F)[C@H](N)Cc1cc2c(NCc3ccncc3F)nc(Cl)nn2c1Br` [Compound 1, 6-((2R,3S)-2-amino-3-fluorobutyl)-7-bromo-2-chloro-N-((3-fluoropyridin-4-yl)methyl)pyrrolo[2,1-f][1,2,4]triazin-4-amine]: the IC50 was in the range of 0.01 to 100 nM.

`Cc1c(C[C@@H](N)CC2CC2)cc2c(NCc3ccncc3F)nc(Cl)nn12` [Compound 10, (S)-6-(2-amino-3-cyclopropylpropyl)-2-chloro-N-((3-fluoropyridin-4-yl)methyl)-7-methylpyrrolo[2,1-f][1,2,4]triazin-4-amine]: the IC50 was 501 to 5000 nM.

As for `Cc1c(C[C@@H](N)CC2CC2)cc2c(NCc3ccncc3)nc(Cl)nn12` [Compound 8, (S)-6-(2-amino-3-cyclopropylpropyl)-2-chloro-7-methyl-N-(pyridin-4-ylmethyl)pyrrolo[2,1-f][1,2,4]triazin-4-amine], the IC50 lay within 501 to 5000 nM.

On to `Cc1c(C[C@@H](N)CC2CC2)cc2c(NCc3ccncn3)nc(Cl)nn12` [Compound 9, (S)-6-(2-amino-3-cyclopropylpropyl)-2-chloro-7-methyl-N-(pyrimidin-4-ylmethyl)pyrrolo[2,1-f][1,2,4]triazin-4-amine], for which the IC50 fell in the range of 501 to 5000 nM.

In the case of `Cc1c(C[C@@H](N)[C@H](C)F)cc2c(NCc3ccncn3)nc(Cl)nn12` [Compound 6, 6-((2R,3S)-2-amino-3-fluorobutyl)-2-chloro-7-methyl-N-(pyrimidin-4-ylmethyl)pyrrolo[2,1-f][1,2,4]triazin-4-amine], the IC50 was in the range of 101 to 500 nM.

Consider `C[C@H](F)[C@H](N)Cc1cc2c(NCc3ncccc3F)nc(Cl)nn2c1Br` [Compound 3, 6-((2R,3S)-2-amino-3-fluorobutyl)-7-bromo-2-chloro-N-((3-fluoropyridin-2-yl)methyl)pyrrolo[2,1-f][1,2,4]triazin-4-amine], for which the IC50 was 501 to 5000 nM.

A word on the IC50: it is the point on the concentration scale where inhibition reaches its midpoint.
